Assay results taken from patent publication EP0093484A2, “Antibacterial monic acid derivatives” (BEECHAM GROUP PLC, priority 1982, dated 1983).
≈ marks a conversion by molar mass, not a printed value. Where two headings read alike, the source gives them in different places.

Legend:
[1] = tested on: Past. haemolytica PA5; assay: Veterinary bacteria, MIC by two fold serial dilution in agar
Experimental: (§1) The activity of the compounds of the Examples against various organisms important in veterinary infections was determined using two fold serial dilutions in Diagnostic Sensitivity Test Agar inoculated with 10^4 organisms.

[2] = tested on: Strep. dysgalactiae SPD1; assay: as above
Experimental: as §1

[3] = tested on: M. suipneumoniae Str. 11; assay: Anti-mycoplasmal activity, MIC in Friis broth agarose; format: cell-based; details: Friis broth solidified with 0.9% agarose, 6 days incubation at 37°C
[4] = tested on: Staph. aureus W2827; assay: Human bacteria, MIC by serial dilution in nutrient agar; format: cell-based; details: nutrient agar with 5% chocolated horse blood, 18 hours at 37°C
[5] = tested on: M. suipneumoniae NB12; assay: Anti-mycoplasmal activity, MIC in Friis broth agarose; format: cell-based; details: Friis broth solidified with 0.9% agarose, 6 days incubation at 37°C
[6] = tested on: M. suipneumoniae PW/C/210; assay: as above; format: cell-based; details: Friis broth solidified with 0.9% agarose, 6 days incubation at 37°C
[7] = tested on: Bacillus subtilis 6633; assay: Human bacteria, MIC by serial dilution in nutrient agar; format: cell-based; details: nutrient agar with 5% chocolated horse blood, 18 hours at 37°C
[8] = tested on: M. suipneumoniae TAM 6N; assay: Anti-mycoplasmal activity, MIC in Friis broth agarose; format: cell-based; details: Friis broth solidified with 0.9% agarose, 6 days incubation at 37°C
[9] = tested on: Corynebacterium xerosis 9755; assay: Human bacteria, MIC by serial dilution in nutrient agar; format: cell-based; details: nutrient agar with 5% chocolated horse blood, 18 hours at 37°C
[10] = tested on: M. suipneumoniae HK(2); assay: Anti-mycoplasmal activity, MIC in Friis broth agarose; format: cell-based; details: Friis broth solidified with 0.9% agarose, 6 days incubation at 37°C
[11] = tested on: M. suipneumoniae UCD 1; assay: as above; format: cell-based; details: Friis broth solidified with 0.9% agarose, 6 days incubation at 37°C
[12] = tested on: Erysipelothrix rhusiopathiae NCTC 8163; assay: Veterinary bacteria, MIC by two fold serial dilution in agar
Experimental: as §1

[13] = tested on: Haemophilus influenzae Wy21; assay: Human bacteria, MIC by serial dilution in nutrient agar; format: cell-based; details: nutrient agar with 5% chocolated horse blood, 18 hours at 37°C
[14] = tested on: Bord. bronchiseptica B08; assay: Veterinary bacteria, MIC by two fold serial dilution in agar
Experimental: as §1

[15] = tested on: P. mirabilis 889; assay: Human bacteria, MIC by serial dilution in nutrient agar; format: cell-based; details: nutrient agar with 5% chocolated horse blood, 18 hours at 37°C
[16] = tested on: M. hyosynoviae ATCC 25591; assay: Anti-mycoplasmal activity, MIC in Friis broth agarose; format: cell-based; details: Friis broth solidified with 0.9% agarose, 6 days incubation at 37°C
[17] = tested on: E. coli E1; assay: Veterinary bacteria, MIC by two fold serial dilution in agar
Experimental: as §1

[18] = tested on: M. pneumoniae ATCC 15492; assay: Anti-mycoplasmal activity, MIC in Friis broth agarose; format: cell-based; details: Friis broth solidified with 0.9% agarose, 6 days incubation at 37°C
[19] = tested on: M. hyorhinis ATCC 23234; assay: as above; format: cell-based; details: Friis broth solidified with 0.9% agarose, 6 days incubation at 37°C
[20] = Past. haemolytica PA5, Diagnostic Sensitivity Test Agar, 18 hours at 37°C
[21] = Strep. dysgalactiae SPD1, Diagnostic Sensitivity Test Agar, 18 hours at 37°C
[22] = Erysipelothrix rhusiopathiae NCTC 8163, Diagnostic Sensitivity Test Agar, 18 hours at 37°C
[23] = Bord. bronchiseptica B08, Diagnostic Sensitivity Test Agar, 18 hours at 37°C
[24] = E. coli E1, Diagnostic Sensitivity Test Agar, 18 hours at 37°C
[25] = Mannheimia haemolytica, PA5, 18 h
[26] = Streptococcus dysgalactiae, SPD1, 18 h
[27] = Mesomycoplasma hyopneumoniae, 144 h, read-out: MIC
[28] = Staphylococcus aureus, read-out: MIC
[29] = Mesomycoplasma hyopneumoniae, TAM6N, 144 h, read-out: MIC
[30] = Mesomycoplasma hyopneumoniae, UCD1, 144 h, read-out: MIC
[31] = Erysipelothrix rhusiopathiae, NCTC8163, 18 h
[32] = Bordetella bronchiseptica, B08, 18 h
[33] = Proteus mirabilis, read-out: MIC
[34] = Mycoplasmoides pneumoniae, ATCC15492, 144 h, read-out: MIC
[35] = Mesomycoplasma hyorhinis, ATCC23234, 144 h, read-out: MIC

| Compound | MIC [1, 25] [µg/mL] | MIC [2, 26] [µg/mL] | MIC [3, 27] [µg/mL] | MIC [4, 28] [µg/mL] | MIC [5, 27] [µg/mL] | MIC [6, 27] [µg/mL] | MIC ([7]; read-out: MIC) [µg/mL] | MIC [8, 29] [µg/mL] | MIC ([9]; read-out: MIC) [µg/mL] | MIC [10, 27] [µg/mL] | MIC [11, 30] [µg/mL] | MIC [12, 31] [µg/mL] | MIC ([13]; read-out: MIC) [µg/mL] | MIC [14, 32] [µg/mL] | MIC [15, 33] [µg/mL] | MIC ([16]; 144 h, read-out: MIC) [µg/mL] | MIC ([17]; Escherichia coli, E1, 18 h) [µg/mL] | MIC [18, 34] [µg/mL] | MIC [19, 35] [µg/mL] | also measured |
| --- | --- | --- | --- | --- | --- | --- | --- | --- | --- | --- | --- | --- | --- | --- | --- | --- | --- | --- | --- | --- |
| 1-(p-Methylsulfinylphenyl)ethyl monate A [Example 8] |  |  |  |  |  |  |  |  |  |  |  |  |  |  |  |  |  |  |  | MIC [1, 20]: 80 µg/mL; MIC [2, 21]: 2.5 µg/mL; MIC [3]: 1.0 µg/mL; MIC [4]: 32 µg/mL; MIC [5]: 2.5 µg/mL; MIC [6]: 1.0 µg/mL; MIC [7]: 4.0 µg/mL; MIC [8]: 2.5 µg/mL; MIC [9]: >128 µg/mL; MIC [10]: 2.5 µg/mL; MIC [11]: 2.5 µg/mL; MIC [12, 22]: >80 µg/mL; MIC [13]: 1.0 µg/mL; MIC [14, 23]: >80 µg/mL; MIC [15]: >128 µg/mL; MIC [16]: 0.5 µg/mL; MIC [17, 24]: >80 µg/mL; MIC [18]: 10 µg/mL; MIC [19]: 1.0 µg/mL |
| CSc1ccc(COC(=O)C=C(C)CC2OCC(CC3OC3C(C)C(C)O)C(O)C2O)cc1 (stereo not shown) [Example 1, p-Methylthiobenzyl monate A] | 0.312 (≈ 0.649 µM) | 0.156 (≈ 0.325 µM) | 0.25 (≈ 0.52 µM) | 0.5 (≈ 1.04 µM) | 0.5 (≈ 1.04 µM) | 0.25 (≈ 0.52 µM) | 0.25 (≈ 0.52 µM) | 0.5 (≈ 1.04 µM) | > 100 | 0.5 (≈ 1.04 µM) | 0.5 (≈ 1.04 µM) | 10 (≈ 20.8 µM) | 0.25 (≈ 0.52 µM) | 20 (≈ 41.6 µM) | 100 (≈ 208 µM) | 0.05 (≈ 0.104 µM) | > 80 | 1 (≈ 2.08 µM) | 0.25 (≈ 0.52 µM) |  |
| CC(=CC(=O)OCc1ccc([S+](C)[O-])cc1)CC1OCC(CC2OC2C(C)C(C)O)C(O)C1O (stereo not shown) [Example 2, p- Methylsulphinylbenzyl monate A] | 5 (≈ 10.1 µM) | 0.312 (≈ 0.628 µM) | 0.25 (≈ 0.503 µM) | 2.5 (≈ 5.03 µM) | 0.25 (≈ 0.503 µM) | 0.1 (≈ 0.201 µM) | 1 (≈ 2.01 µM) | 0.5 (≈ 1.01 µM) | > 100 | 0.25 (≈ 0.503 µM) | 0.25 (≈ 0.503 µM) | 20 (≈ 40.3 µM) | 0.1 (≈ 0.201 µM) | 40 (≈ 80.5 µM) | 50 (≈ 101 µM) | 0.05 (≈ 0.101 µM) | > 80 | 1 (≈ 2.01 µM) | 0.25 (≈ 0.503 µM) |  |
| CC(=CC(=O)OCc1ccc(S(C)(=O)=O)cc1)CC1OCC(CC2OC2C(C)C(C)O)C(O)C1O (stereo not shown) [Example 3, p-Methylsulphonylbenzyl monate A] | 5 (≈ 9.75 µM) | 0.156 (≈ 0.304 µM) | 0.1 (≈ 0.195 µM) | 2.5 (≈ 4.88 µM) | 0.1 (≈ 0.195 µM) | 0.1 (≈ 0.195 µM) | 0.5 (≈ 0.975 µM) | 0.25 (≈ 0.488 µM) | > 100 | 0.25 (≈ 0.488 µM) | 0.25 (≈ 0.488 µM) | 80 (≈ 156 µM) | 0.1 (≈ 0.195 µM) | 20 (≈ 39 µM) | 50 (≈ 97.5 µM) | 0.025 (≈ 0.0488 µM) | > 80 | 0.25 (≈ 0.488 µM) | 0.1 (≈ 0.195 µM) |  |
| CC(=CC(=O)OCc1cccc([S+](C)[O-])c1)CC1OCC(CC2OC2C(C)C(C)O)C(O)C1O (stereo not shown) [Example 6, m-Methylsulfinylbenzyl monate A] | 80 (≈ 161 µM) | 20 (≈ 40.3 µM) | 5 (≈ 10.1 µM) | 12.5 (≈ 25.2 µM) | 5 (≈ 10.1 µM) | 5 (≈ 10.1 µM) | 12.5 (≈ 25.2 µM) | 10 (≈ 20.1 µM) | > 100 | 10 (≈ 20.1 µM) | 10 (≈ 20.1 µM) | > 80 | 2.5 (≈ 5.03 µM) | > 80 | > 100 | 5 (≈ 10.1 µM) | > 80 | 5 (≈ 10.1 µM) | 5 (≈ 10.1 µM) |  |
| CC(=CC(=O)OCc1cccc(S(C)(=O)=O)c1)CC1OCC(CC2OC2C(C)C(C)O)C(O)C1O (stereo not shown) [Example 7, m-Methylsulfonylbenzyl monate A] | 10 (≈ 19.5 µM) | 1.25 (≈ 2.44 µM) | 0.5 (≈ 0.975 µM) | 5 (≈ 9.75 µM) | 0.5 (≈ 0.975 µM) | 0.5 (≈ 0.975 µM) | 2.5 (≈ 4.88 µM) | 1 (≈ 1.95 µM) | > 100 | 1 (≈ 1.95 µM) | 1 (≈ 1.95 µM) | > 80 | 0.5 (≈ 0.975 µM) | > 80 | > 100 | 0.25 (≈ 0.488 µM) | > 80 | 2.5 (≈ 4.88 µM) | 0.5 (≈ 0.975 µM) |  |
| CC(=CC(=O)OC(C)c1ccc(S(C)(=O)=O)cc1)CC1OCC(CC2OC2C(C)C(C)O)C(O)C1O (stereo not shown) [Example 9, 1-(p-Methylsulfonylphenyl)ethyl monate A] | 40 (≈ 76 µM) | 0.625 (≈ 1.19 µM) | 0.5 (≈ 0.949 µM) | 16 (≈ 30.4 µM) | 1 (≈ 1.9 µM) |  | 1 (≈ 1.9 µM) | 1 (≈ 1.9 µM) | > 128 | 1 (≈ 1.9 µM) | 1 (≈ 1.9 µM) | 80 (≈ 152 µM) | 0.5 (≈ 0.949 µM) | > 80 | > 128 | 0.25 (≈ 0.475 µM) | > 80 | 0.5 (≈ 0.949 µM) | 0.5 (≈ 0.949 µM) |  |
| m-Methylthiobenzyl monate A [Example 5] |  |  |  |  |  |  |  |  |  |  |  |  |  |  |  |  |  |  |  | MIC [1, 20]: 10 µg/mL; MIC [2, 21]: .07 µg/mL; MIC [3]: 0.25 µg/mL; MIC [4]: 0.5 µg/mL; MIC [5]: 0.5 µg/mL; MIC [6]: 0.25 µg/mL; MIC [7]: 0.1 µg/mL; MIC [8]: 0.5 µg/mL; MIC [9]: >100 µg/mL; MIC [10]: 0.5 µg/mL; MIC [11]: 0.5 µg/mL; MIC [12, 22]: 5 µg/mL; MIC [13]: 1.0 µg/mL; MIC [14, 23]: 10 µg/mL; MIC [15]: >100 µg/mL; MIC [16]: 0.5 µg/mL; MIC [17, 24]: >80 µg/mL; MIC [18]: 5.0 µg/mL; MIC [19]: 0.25 µg/mL |
